Active and inactive are the calls of the source.
Columns and labels:
cells = assay type: functional
[1] = cytotoxicity in HEK-293T cells, dose response, cytotoxicity control for TCR NF-kB inhibitor project, luminescence, T-cell screen hits (AID 489026); assay type: functional, cell-based;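 note: cells exposed to compound about 14 hours before the viability readout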
Leucine aminopeptidase = target: T1, Leucine aminopeptidase (Plasmodium falciparum 3D7, UniProt Q8IL11); assay: P. falciparum M17LAP inhibitors, primary screen, biochemical, fluorogenic H-Leu-NHMec substrate, 1536-well (AID 1619); assay type: functional
T1 sequence (Q8IL11 whole entry): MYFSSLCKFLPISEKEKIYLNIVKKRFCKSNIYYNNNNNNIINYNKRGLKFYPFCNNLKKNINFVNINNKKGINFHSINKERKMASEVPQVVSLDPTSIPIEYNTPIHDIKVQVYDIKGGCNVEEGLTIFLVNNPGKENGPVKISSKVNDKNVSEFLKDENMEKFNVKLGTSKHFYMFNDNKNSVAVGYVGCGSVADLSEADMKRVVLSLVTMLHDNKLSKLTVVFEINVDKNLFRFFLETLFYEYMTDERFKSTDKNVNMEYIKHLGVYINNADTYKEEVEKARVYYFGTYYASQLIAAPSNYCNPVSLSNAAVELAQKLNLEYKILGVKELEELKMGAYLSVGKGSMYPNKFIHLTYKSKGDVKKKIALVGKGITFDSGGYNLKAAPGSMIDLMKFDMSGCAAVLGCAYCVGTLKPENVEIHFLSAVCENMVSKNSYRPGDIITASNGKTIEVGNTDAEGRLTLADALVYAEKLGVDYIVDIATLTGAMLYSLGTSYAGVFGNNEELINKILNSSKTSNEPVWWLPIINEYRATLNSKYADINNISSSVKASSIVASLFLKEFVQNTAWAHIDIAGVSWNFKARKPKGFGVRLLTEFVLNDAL

Cytochrome P450 2C9 = Cytochrome P450 2C9 (Homo sapiens, UniProt P11712)
Cytochrome P450 2C9, sequence (P11712 whole entry): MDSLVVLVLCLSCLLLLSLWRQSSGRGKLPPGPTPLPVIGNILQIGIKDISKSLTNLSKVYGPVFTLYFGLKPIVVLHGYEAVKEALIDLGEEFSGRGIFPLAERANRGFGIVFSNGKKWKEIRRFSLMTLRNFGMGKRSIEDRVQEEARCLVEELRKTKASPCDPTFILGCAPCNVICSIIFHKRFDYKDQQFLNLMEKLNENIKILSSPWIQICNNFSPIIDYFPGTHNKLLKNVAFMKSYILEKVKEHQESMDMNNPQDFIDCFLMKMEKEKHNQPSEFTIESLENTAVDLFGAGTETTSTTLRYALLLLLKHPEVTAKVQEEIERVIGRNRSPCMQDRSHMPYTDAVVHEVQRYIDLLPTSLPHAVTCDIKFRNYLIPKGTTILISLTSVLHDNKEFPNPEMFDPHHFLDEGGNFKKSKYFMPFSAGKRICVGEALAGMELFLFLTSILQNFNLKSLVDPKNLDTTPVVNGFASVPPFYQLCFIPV

Large T antigen = Large T antigen (Simian virus 40, UniProt P03070); assay type: functional, Betapolyomavirus macacae;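 note: Confirmatory-stage PubChem screen for compounds that inhibit SV40 T antigen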
Large T antigen, sequence (P03070 whole entry): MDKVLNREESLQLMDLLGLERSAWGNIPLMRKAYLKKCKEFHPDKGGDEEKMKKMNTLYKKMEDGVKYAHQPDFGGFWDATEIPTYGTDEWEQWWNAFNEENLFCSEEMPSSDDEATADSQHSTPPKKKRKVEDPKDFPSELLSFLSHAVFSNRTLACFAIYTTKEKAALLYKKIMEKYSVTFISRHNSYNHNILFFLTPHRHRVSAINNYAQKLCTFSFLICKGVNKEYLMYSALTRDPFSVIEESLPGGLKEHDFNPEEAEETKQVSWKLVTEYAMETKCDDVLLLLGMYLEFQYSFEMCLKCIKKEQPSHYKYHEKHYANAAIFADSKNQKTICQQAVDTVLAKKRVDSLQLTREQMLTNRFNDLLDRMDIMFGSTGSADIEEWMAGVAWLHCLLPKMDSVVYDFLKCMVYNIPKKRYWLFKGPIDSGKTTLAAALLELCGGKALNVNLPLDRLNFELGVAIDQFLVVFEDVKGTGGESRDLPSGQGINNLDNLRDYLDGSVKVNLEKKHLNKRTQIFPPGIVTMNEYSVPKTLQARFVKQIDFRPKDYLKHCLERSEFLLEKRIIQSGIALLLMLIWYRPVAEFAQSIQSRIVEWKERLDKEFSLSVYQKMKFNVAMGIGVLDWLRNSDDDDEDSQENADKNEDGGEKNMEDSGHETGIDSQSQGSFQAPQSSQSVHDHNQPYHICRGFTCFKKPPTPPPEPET

[2] = target: FAD-linked sulfhydryl oxidase ALR (Homo sapiens, UniProt P55789); assay: inhibitors of human ALR sulfhydryl oxidase, dose response, biochemical, H2O2 detection, luminescence, cherry-pick (AID 493248)
FAD-linked sulfhydryl oxidase ALR, sequence (P55789 whole entry): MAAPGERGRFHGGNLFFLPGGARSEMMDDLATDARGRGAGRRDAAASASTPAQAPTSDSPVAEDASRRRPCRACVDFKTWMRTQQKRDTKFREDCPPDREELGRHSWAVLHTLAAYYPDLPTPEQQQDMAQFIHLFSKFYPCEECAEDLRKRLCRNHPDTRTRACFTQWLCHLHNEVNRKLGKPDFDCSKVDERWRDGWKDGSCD

[3] = NIH-3T3 fibroblast cytotoxicity, dose response, cytotoxicity control, cell-based, fluorescence, Alamar Blue, secondary assay (AID 2327); assay type: functional;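 note: NIH-3T3 mouse fibroblasts cultured with fluconazole at 8 µg/mL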
[4] = C. albicans growth with fluconazole, confirmation, fluorescence, retest (AID 2467); assay type: functional, cell-based
[5] = microbe, parasite or virus in culture; assay type: functional; conditions: Mycobacterium tuberculosis
[6] = growth suppression of PTEN-null colon cells, dose response, cell-based, HCT116 PTEN knockout (AID 1047); assay type: functional;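 note: HCT116 colon tumor cells with PTEN knocked out; cells exposed to compound for 60 hours before readout; potency for loss of cell viability measured by luminescence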
[7] = growth suppression of beta-catenin-knockout colon cells, dose response, cell-based, HCT116, human colon tumor (AID 1045); assay type: functional;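 note: HCT116 colon tumor cells with beta catenin knocked out; cells exposed to compound for 60 hours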
[8] = HEp-2 cell cytotoxicity, dose response, cytotoxicity control for RSV inhibitor project, HTS (AID 2410); assay type: functional; conditions: human respiratory syncytial virus
[9] = system: Streptococcus sp. 'group A'; assay: growth inhibition of control SK(-) GAS strain, dose response, counter-screen for streptokinase expression inhibitor project, luminescence, kanamycin, BacTiterGlo, confirmation (AID 1900); assay type: functional, organism-based
Streptokinase A = target: T2, Streptokinase A (Streptococcus pyogenes serotype M1, UniProt P10520); assay: S. pyogenes streptokinase expression inhibitors, potency, dose response, plasminogen activation absorbance, OD405 (AID 1914); assay type: functional, Streptococcus pyogenes M1 GAS;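 note: secreted streptokinase activity via plasminogen activation per viability signal from cell pellet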
T2 sequence (P10520 whole entry): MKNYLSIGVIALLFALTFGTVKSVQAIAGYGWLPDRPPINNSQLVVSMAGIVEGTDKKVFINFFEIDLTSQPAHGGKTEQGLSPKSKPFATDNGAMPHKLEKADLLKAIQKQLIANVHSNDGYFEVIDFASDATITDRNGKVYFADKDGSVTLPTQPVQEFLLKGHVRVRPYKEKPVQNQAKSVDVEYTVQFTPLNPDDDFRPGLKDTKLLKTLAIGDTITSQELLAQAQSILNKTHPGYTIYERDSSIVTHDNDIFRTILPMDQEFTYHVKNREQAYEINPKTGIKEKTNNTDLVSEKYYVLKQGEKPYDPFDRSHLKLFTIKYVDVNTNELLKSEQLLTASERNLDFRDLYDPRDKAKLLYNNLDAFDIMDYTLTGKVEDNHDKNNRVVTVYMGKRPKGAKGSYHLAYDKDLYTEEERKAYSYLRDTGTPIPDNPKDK

Streptococcus = assay: Group A Streptococcus viability loss, dose response, counter-screen for streptokinase expression inhibitor project, luminescence, BacTiterGlo (AID 1915); assay type: functional, organism-based;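 note: potency for reduction of bacterial viability or growth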
Cytochrome P450 2C19 = Cytochrome P450 2C19 (Homo sapiens, UniProt P33261); assay: Cytochrome panel assay with activity outcomes. Panel member name: p450-cyp2c19 Compounds with AC50 equal or less than 10 uM are considered active; assay type: functional; conditions: read-out: AC50
Cytochrome P450 2C19, sequence (P33261 whole entry): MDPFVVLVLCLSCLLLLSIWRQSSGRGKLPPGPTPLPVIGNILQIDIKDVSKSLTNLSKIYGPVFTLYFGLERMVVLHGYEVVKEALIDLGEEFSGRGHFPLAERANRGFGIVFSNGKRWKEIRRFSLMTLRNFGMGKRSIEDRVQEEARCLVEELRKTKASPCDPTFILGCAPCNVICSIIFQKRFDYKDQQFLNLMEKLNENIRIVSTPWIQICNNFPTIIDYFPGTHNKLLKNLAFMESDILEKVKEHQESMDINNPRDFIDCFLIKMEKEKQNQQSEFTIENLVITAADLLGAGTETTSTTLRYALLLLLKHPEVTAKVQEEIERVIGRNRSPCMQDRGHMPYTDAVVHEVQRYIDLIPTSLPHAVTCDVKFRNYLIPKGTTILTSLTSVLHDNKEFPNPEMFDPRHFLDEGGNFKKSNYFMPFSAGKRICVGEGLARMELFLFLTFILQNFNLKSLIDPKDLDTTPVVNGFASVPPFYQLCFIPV

Cytochrome P450 3A4 = Cytochrome P450 3A4 (Homo sapiens, UniProt P08684);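 note: CYP3A4 tested as one member of a cytochrome P450 panel screen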
Cytochrome P450 3A4, sequence (P08684 whole entry): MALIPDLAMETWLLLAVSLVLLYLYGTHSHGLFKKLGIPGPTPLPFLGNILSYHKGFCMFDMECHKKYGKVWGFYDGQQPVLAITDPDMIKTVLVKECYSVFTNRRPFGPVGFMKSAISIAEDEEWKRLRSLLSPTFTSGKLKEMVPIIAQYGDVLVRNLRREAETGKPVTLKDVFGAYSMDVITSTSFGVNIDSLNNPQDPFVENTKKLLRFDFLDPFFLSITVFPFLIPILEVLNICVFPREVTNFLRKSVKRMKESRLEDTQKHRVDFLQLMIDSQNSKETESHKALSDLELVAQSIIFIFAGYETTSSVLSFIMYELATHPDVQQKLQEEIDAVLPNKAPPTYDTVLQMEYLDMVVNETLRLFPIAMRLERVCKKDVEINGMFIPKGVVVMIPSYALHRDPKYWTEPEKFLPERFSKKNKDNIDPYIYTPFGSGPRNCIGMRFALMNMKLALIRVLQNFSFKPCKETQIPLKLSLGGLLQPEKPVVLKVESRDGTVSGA

[10] = inhibitors of firefly luciferase expression or activity, dose response, H4 neuroglioma cells, luminescence (AID 1990); assay type: functional, cell-based
[11] = Luminescence Cell-Based Dose Response HTS to Identify Inhibitors of 5'UTR Stem-Loop Driven Prion Protein mRNA Translation in H4 Neuroglioblastoma Cells. [Related pubchem assays: 1827 (Project Summary), 1813 (Primary HTS)]; assay type: functional
[12] = inhibitors of SNCA 5'UTR-driven reporter translation, confirmation, H4 neuroglioma cells, luminescence (AID 1988); assay type: functional, cell-based
INS1 = assay: beta cell apoptosis inhibitors, cytokine rescue, dose response, luminescence, retest (AID 449756); assay type: functional, cell-based; conditions: Rattus norvegicus;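 note: cell death triggered by IL-1 beta plus TNF-alpha plus IFN-gamma mixture; protective hits raise ATP signal compared with cytokine alone wells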
[13] = inhibitors of intracellular T. cruzi replication, confirmation, NIH3T3 host cells, beta-gal luminescence (AID 2044); assay type: functional, cell-based;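 note: intracellular parasites grown in NIH/3T3 mouse fibroblasts as host cells; luminescent beta-galactosidase reporter signal from transgenic T. cruzi replicating inside host cells; inhibitors lower the luminescence signal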
[14] = cytotoxicity toward NIH3T3 fibroblasts, dose response, counter-screen, cell-based, ATP luminescence, mouse fibroblasts (AID 2010); assay type: functional;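 note: cells exposed to compound for about 90 hours before reading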
[15] = Shn3 3'UTR reporter inhibitors, dose response, cell-based, Clone20 osteoblasts, firefly luciferase, cherry-picked (AID 624132); assay type: functional;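 note: firefly luciferase luminescence from reporter carrying the Shn3 3'UTR in osteoblasts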
[16] = HepG2 cell cytotoxicity, dose response, cytotoxicity control for Shn3 inhibitor project, CellTiter-Glo, cherry-picked (AID 624134); assay type: functional, cell-based
[17] = control 3'UTR Renilla luciferase suppression, dose response, counter-screen for Shn3 inhibitor project, cell-based, Clone20-Shn3RL, cherry-picked (AID 624133); assay type: functional
[18] = target: T3, Heat shock factor protein 1 (Mus musculus, UniProt P38532); assay: inhibition of MG132-induced HSE-luciferase signal, confirmation, cell-based, NIH3T3, luminescence, dose retest (AID 2382); assay type: functional;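 note: NIH3T3 fibroblasts with HSF1-driven luciferase reporter stressed by proteasome inhibitor MG132; luminescence from HSF1-driven luciferase expression after 8 hours of MG132 stress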
T3 sequence (P38532 whole entry): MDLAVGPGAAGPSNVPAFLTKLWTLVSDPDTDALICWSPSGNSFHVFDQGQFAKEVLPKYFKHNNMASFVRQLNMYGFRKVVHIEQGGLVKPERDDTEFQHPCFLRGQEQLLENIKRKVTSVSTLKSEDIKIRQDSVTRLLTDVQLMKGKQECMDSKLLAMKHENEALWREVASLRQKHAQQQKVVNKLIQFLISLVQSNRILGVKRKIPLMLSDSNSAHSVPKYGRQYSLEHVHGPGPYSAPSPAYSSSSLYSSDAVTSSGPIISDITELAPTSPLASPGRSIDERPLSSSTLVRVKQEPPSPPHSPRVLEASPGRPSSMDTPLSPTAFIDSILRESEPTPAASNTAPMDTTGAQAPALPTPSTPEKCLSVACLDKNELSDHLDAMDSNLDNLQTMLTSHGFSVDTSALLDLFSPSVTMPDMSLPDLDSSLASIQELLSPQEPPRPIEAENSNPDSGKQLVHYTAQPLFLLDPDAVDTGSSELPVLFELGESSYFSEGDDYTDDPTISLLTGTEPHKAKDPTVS

Structure (SMILES): O=C(OCC(=O)N1CCN(c2ccccc2)CC1)c1ccc2ccccc2n1
- IC50 (cells): 16.3 µM (active)

Structure (SMILES): O=C(O)c1ccc(-c2ccc(-c3ccccc3)cc2)s1
- IC50 [1]: > 80 µM (inactive)

Structure (SMILES): COc1ccc(OCCCn2cccc2/C=C2/C(=N)N3OC(C)=CC3=NC2=O)cc1
- IC50 (Leucine aminopeptidase): 10.9 µM (active)

Structure (SMILES): Nc1c2c(nc3ccccc13)CCC[C@H]2O
- AC50 (Cytochrome P450 2C9): inconclusive

Structure (SMILES): CCN(CC)c1ccc(NC(=O)CCNS(=O)(=O)c2ccc3c(c2)CCC(=O)N3)c(C)c1
- IC50 (Large T antigen): 42.6 µM (active)
- AC50 [2]: 1.09 µM (active)

Structure (SMILES): CC1CCCN(Cc2c(O)ccc3c(O)c(-c4nc5ccccc5s4)c(=N)oc23)C1 (stereo not drawn)
- EC50 [3]: 76.2 µM (active)
- EC50 [4]: > 38 µM (not active)
- CC50 [5]: 17.2 µM (active)
- EC50 [6]: 13.9 µM (active)
- EC50 [7]: 18.9 µM (active)

Structure (SMILES): Cc1cccc(C)c1OCC(O)CN1CCC(CN2C(=O)c3cccc4cccc(c34)C2=O)CC1 (stereo not drawn)
- CC50 [8]: 7.63 µM (active)
- EC50 [9]: 9.04 µM (active)
- EC50 (Streptokinase A): 38.2 µM (active)
- CC50 [5]: 23.4 µM (active)
- EC50 [6]: 11.7 µM (active)
- EC50 [7]: 9.53 µM (active)
- EC50 (Streptococcus): 16.7 µM (active)

Structure (SMILES): O=C(OCC#CCSc1nc2ccccc2o1)c1ccco1
- IC50 (cells): 10 µM (active)

Structure (SMILES): FC(F)(F)C1CCCN(c2nsc3ccccc23)C1 (stereo not drawn)
- IC50 (Large T antigen): 13 µM (active)

Structure (SMILES): Oc1cc(-c2ccccc2)nc2nc(SCc3ccccc3)nn12
- IC50 (Leucine aminopeptidase): 5.04 µM (active)

Structure (SMILES): Cc1cc(C)cc(NC(=O)C2CCN(c3nc(C)cc(C)n3)CC2)c1
- IC50 (Leucine aminopeptidase): 105 µM (active)

Structure (SMILES): Cc1ccc(NC(=O)CCSc2nnc(Cc3ccccc3)o2)cc1
- IC50 (cells): 18.2 µM (active)

Structure (SMILES): N#CC1=C2SCN(Cc3ccco3)CN2C(=O)CC1c1c(F)cccc1Cl (stereo not drawn)
- IC50 (Large T antigen): 84.4 µM (active)

Structure (SMILES): S=C(NCCSCc1ccc(Cl)cc1Cl)Nc1ccccc1
- EC50 [9]: 11.5 µM (active)
- EC50 (Streptokinase A): > 150 µM (not active)
- EC50 (Streptococcus): 17 µM (active)
- AC50 (Cytochrome P450 2C9): inconclusive

Structure (SMILES): CNc1nc(-c2c(C)noc2C)nc2ccccc12
- AC50 (Cytochrome P450 2C19): 3.98 µM (inconclusive)
- AC50 (Cytochrome P450 3A4): 12.6 µM (inconclusive)
- AC50 (Cytochrome P450 2C9): inconclusive

Structure (SMILES): CCOC(=O)CNc1c(-c2ccc(O)cc2)nc2ccccn12
- IC50 (Large T antigen): 14.7 µM (active)

Structure (SMILES): Nc1nc2ccc(O)cc2s1
- IC50 (Large T antigen): 3.5 µM (active)

Structure (SMILES): COc1ccc(C)cc1Nc1n[n+](-c2ccccc2)c(-c2c(Cl)cccc2Cl)s1
- EC50 [10]: > 120 µM (not active)
- EC50 [11]: 12.6 µM (active)
- EC50 [12]: > 120 µM (not active)
- CC50 [5]: 9.91 µM (active)
- AC50 (INS1): 4.16 µM (active)

Structure (SMILES): C=C(C)C(=O)N1CC2(CC(c3cccc(NC(=O)c4ccccc4)c3)=NO2)C[C@@H]1C(N)=O (stereo partly drawn)
- AC50 (Cytochrome P450 2C9): inconclusive

Structure (SMILES): CC(Oc1ccc(Cl)cc1Cl)c1nc(-c2ccc(NC(=O)c3ccncc3)cc2)no1 (stereo not drawn)
- EC50 [13]: 1.46 µM (active)
- EC50 [14]: > 60 µM (not active)
- IC50 [1]: > 80 µM (inactive)
- AC50 [15]: 3.93 µM (active)
- AC50 [16]: 6.83 µM (active)
- AC50 [17]: 21.7 µM (active)

Structure (SMILES): O=C(Oc1cccnc1)c1ccc(Cl)c(Cl)c1
- IC50 (cells): 1.31 µM (active)

Structure (SMILES): CCOC(=O)Cn1c(-c2ccccc2)ccc(C#N)c1=O
- IC50 (cells): 7.5 µM (active)

Structure (SMILES): CC(C)(C)OC(=O)[C@H]1[C@H](c2ccc([N+](=O)[O-])cc2)C2(C(=O)c3ccccc3C2=O)C2c3ccccc3C=NN21 (stereo partly drawn)
- IC50 (Leucine aminopeptidase): 2.23 µM (active)

Structure (SMILES): COc1cccc2cc(C(=O)CC3(O)C(=O)N(Cc4ccccc4)c4ccccc43)c(=O)oc12 (stereo not drawn)
- AC50 (Cytochrome P450 2C9): inconclusive

Structure (SMILES): Cc1ccc(-n2c(=O)c3c4c(sc3n3c(S)nnc23)CCC4)cc1
- IC50 (Large T antigen): 30.9 µM (active)

Structure (SMILES): O=S(=O)(c1cc(F)ccc1F)N1CCN(c2ncnc3ccccc23)CC1
- IC50 [1]: 65.1 µM (inactive)
- AC50 (INS1): 2.26 µM (active)
- AC50 [15]: 1.85 µM (active)
- AC50 [16]: 33.6 µM (active)
- AC50 [17]: 4.86 µM (active)

Structure (SMILES): C(=N\Nc1ccc2ccccc2n1)/c1ccc2c(c1)OCCO2
- EC50 [18]: < 0.16 µM (active)
- CC50 [5]: > 40 µM (active)

Structure (SMILES): Oc1oc(-c2ccco2)nc1/C=N/c1cccc(Cl)c1
- IC50 (cells): > 50 µM (active)
